In general, IC50 refers to the midpoint of a concentration-inhibition curve. The low end stands for higher potency, the high end for lower potency.

Where only a bound is given, the exact number is not on record here.

PRS (prolyl-tRNA synthetase) protein, PRS portion of EPRS, sequence (P07814 1007-1512): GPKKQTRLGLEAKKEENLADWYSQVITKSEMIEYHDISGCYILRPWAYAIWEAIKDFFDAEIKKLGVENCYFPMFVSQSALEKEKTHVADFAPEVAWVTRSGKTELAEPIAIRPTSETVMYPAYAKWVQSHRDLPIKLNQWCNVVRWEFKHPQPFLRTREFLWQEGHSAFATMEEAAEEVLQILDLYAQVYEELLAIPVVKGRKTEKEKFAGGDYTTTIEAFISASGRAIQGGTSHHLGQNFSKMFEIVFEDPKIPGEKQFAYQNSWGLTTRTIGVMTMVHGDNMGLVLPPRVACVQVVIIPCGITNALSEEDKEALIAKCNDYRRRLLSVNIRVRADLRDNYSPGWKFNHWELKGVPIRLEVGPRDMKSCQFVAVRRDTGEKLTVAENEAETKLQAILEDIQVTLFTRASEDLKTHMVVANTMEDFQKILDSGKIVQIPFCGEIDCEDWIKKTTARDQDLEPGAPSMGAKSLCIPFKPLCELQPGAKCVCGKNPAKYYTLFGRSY

The assay concerns the target PRS (prolyl-tRNA synthetase) protein, PRS portion of EPRS (Homo sapiens (Human), UniProt P07814). Kind of assay: PRS enzyme activity inhibition experiment ([3H]proline, liquid scintillation). Format: biochemical. The note with it: purified PRS protein, 37° C. for 5 to 10 minutes. An outline of the steps: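 Values are % inhibition or IC50 ranges (A ≤100 nM, B 100–500 nM, C ≥500 nM) from [3H]proline incorporation measured by liquid scintillation. PRS portion of human EPRS, reacted 5–10 min at 37 °C in pH 7.4 phosphate buffer containing 5 mM ATP and tRNA, compound at 1 μM.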
In the case of `Cc1c(Cl)ccc2c1ncn2C/C=C/[C@H]1NCCC[C@@H]1O` [Example 173, (2R,3S)-2-((E)-3-(5-chloro-4-methyl-1H-benzo[d]imidazol-1-yl)prop-1-en-1-yl)piperidin-3-ol], the half-maximal inhibitory concentration (IC50) fell in the range of 0.1 to 0.5 µM.

Consider `O[C@H]1CCCN[C@@H]1/C=C/Cn1cnc2cc(F)c(F)cc21` [Example 171, (2R,3S)-2-((E)-3-(5,6-difluoro-1H-benzo[d]imidazol-1-yl)prop-1-en-1-yl)piperidin-3-ol], for which the concentration for half-maximal inhibition (IC50) was at least 0.5 µM.

For the compound `O[C@H]1CCCN[C@@H]1CCCn1cnc2ccc(F)c(F)c21` [Example 50, (2R,3S)-2-(3-(6,7-difluoro-1H-benzo[d]imidazol-1-yl)propyl)piperidin-3-ol], the IC50 is 0.1 to 0.5 µM.

Consider `COC(=O)c1cc(Br)c2c(c1)ncn2CCC[C@H]1NCCC[C@@H]1O` [Example 68, methyl 7-bromo-1-(3-((2R,3S)-3-hydroxypiperidin-2-yl)propyl)-1H-benzo[d]imidazole-5-carboxylate], for which the 50% inhibitory concentration (IC50) was at least 0.5 µM.

As to `O=C(O)c1cn(C/C=C/[C@H]2NCCC[C@@H]2O)c2cc(Cl)ccc12` [Example 206, 6-chloro-1-((E)-3-((2R,3S)-3-hydroxypiperidin-2-yl)allyl)-1H-indole-3-carboxylic acid], the IC50 is at least 0.5 µM.

Consider `O=c1[nH]c2ccc(Br)cc2n1CCC[C@H]1NCCC[C@@H]1O` [Example 161, 6-bromo-1-(3-((2R,3S)-3-hydroxypiperidin-2-yl)propyl)-1H-benzo[d]imidazol-2(3H)-one], for which the concentration for half-maximal inhibition (IC50) is at least 0.5 µM.

The compound `O[C@H]1CCCN[C@@H]1/C=C/Cn1ncc2ccc(Cl)cc21` [Example 198, (2R,3S)-2-((E)-3-(6-chloro-1H-indazol-1-yl)prop-1-en-1-yl)piperidin-3-ol] yielded a half-maximal inhibitory concentration (IC50) of at least 0.5 µM.

`O[C@H]1CCCN[C@@H]1CCCn1cnc2cc(Cl)ncc21` [Example 123, (2R,3S)-2-(3-(6-chloro-3H-imidazo[4,5-c]pyridin-3-yl)propyl)piperidin-3-ol] gave a half-inhibitory concentration (IC50) of at least 0.5 µM.

In the case of `O[C@H]1CCCN[C@@H]1CCCn1cnc2ccc(Cl)nc21` [Example 118, (2R,3S)-2-(3-(5-chloro-3H-imidazo[4,5-b]pyridin-3-yl)propyl)piperidin-3-ol], the IC50 was at least 0.5 µM.

Compound `COC(=O)c1cc(-c2cc(Cl)cc3ncn(CCC[C@H]4NCCC[C@@H]4O)c23)cs1` [Example 111, methyl 4-(5-chloro-1-(3-((2R,3S)-3-hydroxypiperidin-2-yl)propyl)-1H-benzo[d]imidazol-7-yl)thiophene-2-carboxylate] came in with an IC50 of at most 0.1 µM.

In turn, `O[C@H]1CCCN[C@@H]1CCCn1cnc2cccc(-c3cccc(F)c3)c21` [Example 27, (2R,3S)-2-(3-(7-(3-fluorophenyl)-1H-benzo[d]imidazol-1-yl)propyl)piperidin-3-ol] had an IC50 of 0.1 to 0.5 µM.

Source of the values: US10981917B2, “Heterocyclic compound, its preparation method, and pharmaceutical composition comprising the same” (Daewoong Pharmaceutical Co., Ltd., priority 2017, dated 2021).
